Results from patent US20060223792A1, “Phenyl and pyridyl LTA4H modulators” (priority 2005, published 2006).
Where a name gives a salt, the structure may show the parent alone. Read-outs that look alike come from different tables or passages of the source.

Tests used:
[1] = target: T1, recombinant human LTA4 hydrolase (rhLTA4H) (Homo sapiens, UniProt P09960); assay: Recombinant human LTA4 hydrolase assay for LTA4 hydrolase inhibitor activity; format: biochemical
T1 construct: made in house; host or cells: Spodoptera frugiperda (Sf-9) cells, baculovirus (pFastBac1)
T1 sequence (P09960 1-611): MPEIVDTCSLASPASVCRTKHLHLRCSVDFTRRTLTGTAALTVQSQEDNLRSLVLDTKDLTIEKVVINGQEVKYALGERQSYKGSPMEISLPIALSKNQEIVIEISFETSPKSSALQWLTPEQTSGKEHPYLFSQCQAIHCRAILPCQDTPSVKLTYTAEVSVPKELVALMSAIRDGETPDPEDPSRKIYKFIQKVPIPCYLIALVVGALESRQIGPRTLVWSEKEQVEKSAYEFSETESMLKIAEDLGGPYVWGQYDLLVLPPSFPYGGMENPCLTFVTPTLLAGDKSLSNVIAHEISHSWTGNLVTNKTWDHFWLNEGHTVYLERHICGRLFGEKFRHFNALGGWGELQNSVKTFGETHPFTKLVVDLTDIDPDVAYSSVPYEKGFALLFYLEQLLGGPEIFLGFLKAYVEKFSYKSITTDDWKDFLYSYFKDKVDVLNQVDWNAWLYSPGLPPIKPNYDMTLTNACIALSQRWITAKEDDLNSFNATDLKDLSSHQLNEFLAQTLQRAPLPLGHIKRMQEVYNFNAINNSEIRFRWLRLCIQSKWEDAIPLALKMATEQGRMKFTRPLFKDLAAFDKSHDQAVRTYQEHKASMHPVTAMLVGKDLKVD
Description: Recombinant Human LTA4 Hydrolase Assay for LTA4 Hydrolase Inhibitor Activity
Compounds of the present invention were tested for LTA4 hydrolase inhibitor activity against recombinant human LTA4 hydrolase (rhLTA4H). Vectors were prepared and used to express rhLTA4H essentially as follows: LTA4 hydrolase encoding DNA was amplified by polymerase chain reaction (PCR) using a human placental cDNA library as a template. Oligonucleotide primers for the PCR reaction were based on the 5′-end, and the complement of the 3′-end, of the published nucleotide sequence for the coding region of the human LTA4 hydrolase gene (C. D. Funk et al., Proc. Natl. Acad. Sci. USA 1987, 84:6677-6681). The amplified […] DNA fragment encoding LTA4 hydrolase was isolated and cloned into the pFastBac1 vector (Invitrogen). Recombinant baculovirus was generated as described by the manufacturer, and used to infect Spodoptera frugiperda (Sf-9) cells. Recombinant LTA4 hydrolase enzyme was purified from the infected Sf-9 cells essentially as described by J. K. Gierse et al. (Protein Expr. Purif. 1993, 4(5):358-366). The purified enzyme solution was adjusted to contain 0.29 mg/mL LTA4 hydrolase, 50 mM Tris (pH 8.0),150 mM NaCl, 5 mM dithiothreitol, 50% glycerol, and EDTA-free Complete protease inhibitor cocktail (Roche). The specific activity of the enzyme was about 3.8 μmol/min/mg.
LTA4 substrate was prepared from the methyl ester of LTA4 (Cayman Chemical) by treatment with 67 equiv. of NaOH under nitrogen at rt for 40 min. The LTA4 substrate in its free acid form was kept frozen at −80° C. until needed. Each compound was diluted to different concentrations in assay buffer (0.1 M potassium phosphate (pH 7.4), 5 mg/mL fatty acid free BSA) containing 10% DMSO. A 25-μL aliquot of each compound dilution was incubated for 10 min at rt with an equal volume of assay buffer containing 36 ng of recombinant human LTA4H. The solution was then adjusted to 200 μL with assay buffer. LTA4 (free acid) was thawed and diluted in assay buffer to a concentration of 357 ng/mL, and 25 μL (9 ng) of LTA4 substrate was added to the reaction mixture (total volume=225 μL) at time zero. Each reaction was carried out at rt for 10 min. The reaction was stopped by diluting 10 μL of the reaction mixture with 200 μL of assay buffer. LTB4 was quantifiedin the diluted sample by a commercially available enzyme-linked immunoassay (Cayman Chemical Co.), as recommended by the manufacturer. Positive controls, under essentially identical conditions but without addition of an inhibitor compound, and negative controls, containing all assay components except enzyme, were routinely run in each experiment. IC50 values were determined by fitting the activity data at different compound concentrations to a 4-parameter equation using the Grafit program (Erithacus software).
The IC50 values presented in the table below should be expected to fall within the typical three-fold variability of assays of this type. The values presented here are, in general, an average of one to three determinations.

[2] = tested on: LTB4 production by calcium ionophore-stimulated murine blood; assay: LTB4 production by calcium ionophore-stimulated murine blood for LTA4H inhibitor activity; format: cell-based, CD-1 mice; conditions: diluted CD-1 mouse whole blood, calcium ionophore A23187, LTB4 by enzyme-linked immunoassay
Description: LTB4 Production by Calcium Ionophore-Stimulated Murine Blood for LTA4H Inhibitor Activity
CD-1 mice were sacrificed, and blood was collected in heparin-containing syringes by cardiac puncture. The blood was diluted 1:15 with RPMI-1640 medium, and 200-μL aliquots of the diluted blood were added to wells of a 96-well microtiter plate. LTA4H inhibitor test compounds were prepared at different concentrations in RPMI-1640 medium containing […], and 20 μL of each test solution was added to a well containing diluted whole blood (final DMSO concentration of 0.1%). After the microtiter plate contents were incubated for 15 min at 37° C. in a humidified incubator, calcium ionophore A23187 (Sigma Chemical Co., St. Louis, Mo.) was added to each sample well (final concentration=20 ng/mL). The incubation was continued under the same conditions for an additional 10 min to allow LTB4 formation. The reaction was terminated by centrifugation (833×g, 10 min at 4° C.), and supernatants were analyzed for LTB4 by a commercially available enzyme-linked immunoassay (Cayman Chemical Co.) according to the manufacturer's instructions. Positive controls, under essentially identical conditions but without addition of an inhibitor compound, and negative unstimulated controls, containing all assay components except calcium ionophore, were routinely run in each experiment. IC50 values were determined by fitting the activity data at different compound concentrations to a 4-parameter equation using the Grafit program (Erithacus software).

[3] = recombinant human LTA4H, LTB4 quantified by enzyme-linked immunoassay, average of one to three determinations, read-out: IC50

Row | Compound | IC50 [1, 3] [nM] | IC50 [2] [nM] | IC50 [1] [nM]
1 | O=C(Nc1ccsc1)Oc1ccc(OCCN2CCCCC2)cc1 [Example 64, Thiophen-3-yl-carbamic acid 4-(2-piperidin-1-yl-ethoxy)-phenyl ester] | 3 | 48 | 
2 | c1ccc(CCOc2ccc(CN3CCC(c4nnn[nH]4)CC3)cc2)cc1 [Example 104, 1-(4-Phenethyloxy-benzyl)-4-(1H-tetrazol-5-yl)-piperidine] | 61 | 284 | 
3 | CS(=O)(=O)NC1CCN(Cc2ccc(OCCc3ccccc3)cc2)CC1 [Example 93, N-[1-(4-Phenethyloxy-benzyl)-piperidin-4-yl]methanesulfonamide] | 18 | 16 | 
4 | O=C(COc1ccc(OCCN2CCCCC2)cc1)c1ccccc1 [Example 24, 1-Phenyl-2-[4-(2-piperidin-1-yl-ethoxy)-phenoxy]-ethanone] | 58 | 202 | 
5 | CCOC(=O)CCNCCc1ccc(OCCc2ccccc2)cc1 [Example 84, 3-[2-(4-Phenethyloxy-phenyl)-ethylamino]-propionic acid ethyl ester] | 10 |  | 
6 | c1ccc(CCOc2ccc(CCN3CCC(c4c[nH]nn4)CC3)cc2)cc1 [Example 31, 1-[2-(4-Phenethyloxy-phenyl)-ethyl]-4-(1H-[1,2,3]triazol-4-yl)-piperidine] | 33 |  | 
7 | O=C(Cc1ccccc1)Oc1ccc(OCCN2CCCCC2)cc1 [Example 21, Phenyl-acetic acid 4-(2-piperidin-1-yl-ethoxy)-phenyl ester] | 1 |  | 
8 | O=C1CN(CCc2ccc(OCCc3ccccc3)cc2)CCN1 [Example 83, 4-[2-(4-Phenethyloxy-phenyl)-ethyl]-piperazin-2-one] | 100 |  | 
9 | O=C(O)C1CCN(CCOc2ccc(OCCc3ccccc3)cc2)CC1 [Example 86, 1-[2-(4-Phenethyloxy-phenoxy)-ethyl]-piperidine-4-carboxylic acid] | 17 |  | 
10 | O=C(Oc1ccc(OCCN2CCCCC2)cc1)c1c[nH]c2ccccc12 [Example 68, 1H-Indole-3-carboxylic acid 4-(2-piperidin-1-yl-ethoxy)-phenyl ester] | 86 |  | 
11 | c1ccc(CCCCOc2ccc(CN3CCCCC3)cc2)cc1 [Example 98, 1-[4-(4-Phenyl-butoxy)-benzyl]-piperidine] | 167 |  | 
12 | O=C(Nc1ccc(OCCN2CCCCC2)cc1)Oc1ccccc1 [Example 14, [4-(2-Piperidin-1-yl-ethoxy)-phenyl]-carbamic acid phenyl ester hydrochloride] |  |  | 1790
13 | Oc1ccc(CCOc2ccc(OCCN3CCCCC3)cc2)cc1 [Example 74, 4-{2-[4-(2-Piperidin-1-yl-ethoxy)-phenoxy]-ethyl}-phenol] | 50 |  | 
14 | NC(=O)C1CCCN(Cc2ccc(OCCc3ccccc3)cc2)C1 (centres unmarked) [Example 102, 1-(4-Phenethyloxy-benzyl)-piperidine-3-carboxylic acid amide] | 36 |  | 
15 | CCCN(CCCc1ccc(OC(=O)Nc2ccccc2)cc1)CC1CC1 [Example 38, Phenyl-carbamic acid 4-[3-(cyclopropylmethyl-propyl-amino)-propyl]-phenyl ester hydrochloride] |  |  | 6
16 | OC(COc1ccc(OCCN2CCCCC2)cc1)c1ccccc1 (centres unmarked) [Example 71, 1-Phenyl-2-[4-(2-piperidin-1-yl-ethoxy)-phenoxy]-ethanol] | 5 |  | 
17 | O=C(Nc1ccc(O)cc1)Oc1ccc(OCCN2CCC(O)(c3ccccc3)CC2)cc1 [Example 39, (4—hydroxy-phenyl)-carbamic acid 4-[2-(4-hydroxy-4-phenyl-piperidin-1-yl)-ethoxy]-phenyl ester] | 0.4 |  | 
18 | NC1CCN(Cc2ccc(OCCc3ccccc3)cc2)CC1 [Example 105, 1-(4-Phenethyloxy-benzyl)-piperidin-4-ylamine] | 25 |  | 
19 | CN(C(=O)Oc1ccc(OCCN2CCC(C(=O)O)CC2)cc1)c1cccc(O)c1 [Example 9, 1-(2-{4-[(3—hydroxy-phenyl)-methyl-carbamoyloxy]-phenoxy}-ethyl)-piperidine-4-carboxylic acid] | 389 |  | 
20 | CCCN(CCc1ccc(OC(=O)Nc2ccccc2)cc1)CC1CC1 [Example 62, Phenyl-carbamic acid 4-[2-(cyclopropylmethyl-propyl-amino)-ethyl]-phenyl ester] | 4 |  | 
21 | O=C(Nc1ccccc1)Oc1ccc(CCN2CCC(O)(c3ccccc3)CC2)cc1 [Example 17, Phenyl-carbamic acid 4-[2-(4-hydroxy-4-phenyl-piperidin-1-yl)-ethyl]-phenyl ester] | 33 |  | 
22 | OC1c2ccccc2CC1Oc1ccc(OCCN2CCCCC2)cc1 (centres unmarked) [Example 125, 2-[4-(2-Piperidin-1-yl-ethoxy)-phenoxy]-indan-1-ol] | 192 |  | 
23 | Fc1ccc(CCOc2ccc(OCCN3CCCCC3)cc2)cc1 [Example 166, 1-(2-{4-[2-(4-Fluoro-phenyl)-ethoxy]-phenoxy}-ethyl)-piperidine] | 248 |  | 
24 | O=C(O)C1CCN(Cc2ccc(OCCc3ccccc3)nc2)CC1 [Example 94, 1-(6-Phenethyloxy-pyridin-3-ylmethyl)-piperidine-4-carboxylic acid] | 254 |  | 
25 | CCOC(=O)C1CCN(Cc2ccc(OCCCc3ccccc3)cc2)CC1 [Example 106, 1-[4-(3-Phenyl-propoxy)-benzyl]-piperidine-4-carboxylic acid ethyl ester] | 154 |  | 
26 | CCOC(=O)C1CCN(CCOc2ccc(OC(=O)N(C)c3cccc(O)c3)cc2)CC1 [Example 8, 1-(2-{4-[(3-Hydroxy-phenyl)-methyl-carbamoyloxy]-phenoxy}-ethyl)-piperidine-4-carboxylic acid ethyl ester] | 100 |  | 
27 | O=C1NCCC12CCN(Cc1ccc(OCCc3ccccc3)cc1)CC2 [Example 100, 8-(4-Phenethyloxy-benzyl)-2,8-diaza-spiro[4.5]decan-1-one] | 121 |  | 
28 | CCN(CCc1ccc(OCC(=O)c2ccccc2)cc1)C1CCCCC1 [Example 72, 2-{4-[2-(Cyclohexyl-ethyl-amino)-ethyl]-phenoxy}-1-phenyl-ethanone] | 10 |  | 
